# In article PMC5218480 (PLoS ONE, 2017):
# Tested on: MV-4-11 cells
# Assay: Gene expression microarray analysis (Affymetrix PrimeView) and GSEA
# Format: cell-based, human
# Conditions: gene C12orf56; ACY-1035 1 mM; LIST F
smiles,measurement,value
Nc1ccc(-c2cccs2)cc1NC(=O)c1ccc2c(c1)cc(C1CC1)n2CCN1CCOCC1 [ACY-1035],"RFU, C12orf56 (ProbeSet 11735607_a_at)",71.19 RFU
